Like-named read-outs stand apart in the source and are kept apart here.
How the values were obtained:
[1] = molecular target: T1, ADAM10 (Homo sapiens, UniProt O14672); assay: ADAM10 glycosylated substrate uHTS/HTS assay; assay type: biochemical
T1 construct: purchased R&D Systems 936-AD
T1 sequence (O14672 214-748): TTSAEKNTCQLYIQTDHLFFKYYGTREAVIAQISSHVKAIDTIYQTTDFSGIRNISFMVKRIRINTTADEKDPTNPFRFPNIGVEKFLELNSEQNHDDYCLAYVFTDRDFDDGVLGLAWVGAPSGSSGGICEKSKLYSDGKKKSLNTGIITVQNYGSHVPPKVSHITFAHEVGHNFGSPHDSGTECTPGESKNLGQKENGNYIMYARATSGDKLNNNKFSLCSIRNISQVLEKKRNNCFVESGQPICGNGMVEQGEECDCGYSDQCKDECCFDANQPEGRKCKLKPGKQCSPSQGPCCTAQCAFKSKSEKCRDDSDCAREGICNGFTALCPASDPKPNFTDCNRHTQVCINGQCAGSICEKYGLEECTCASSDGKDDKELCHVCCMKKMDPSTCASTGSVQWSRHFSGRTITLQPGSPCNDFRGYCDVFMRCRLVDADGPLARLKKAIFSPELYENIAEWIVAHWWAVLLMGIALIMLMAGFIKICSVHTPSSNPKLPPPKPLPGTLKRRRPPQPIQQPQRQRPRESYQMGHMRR
Experimental: To enable uHTS both ADAM10 and ADAM17 glycosylated substrate[13] (Fig. 1A) assays were miniaturized to 1536 well plate format. The workflow of the assays in 384 well plate format was recaptured in 1536 well plate format and assay volume was scaled down to 5 µL.
Both assays followed the same general protocol. […] Reactions were incubated at RT for 2 h, after which the fluorescence was measured using Perkin Elmer Viewlux multimode microplate imager (λexcitation = 360 nm, λemission = 460 nm). Final concentration of test compounds in assays was 7.0 µM.
(§1) The miniaturized 1536-well plate format ADAM10 and ADAM17 assays were used to screen a collection of ≈370,000 compounds (MLSMR library, provided by the NIH) on the automated Kalypsys/GNF platform at the Scripps Research Institute Molecular Screening Center (SRIMSC, Jupiter, FL. More details at http://hts.florida.scripps.edu/). […] Both uHTS campaigns were run separately but in a similar manner. Briefly, the first step was the primary screen of all MLSMR’s test compounds as singlicate against the ADAM10 or ADAM17 target at a final concentration of 7.0 μM. Next, compounds selected as primary hits were cherry-picked and retested in triplicate against the primary screen target and its anti-target (ADAM17 for the ADAM10 screening effort, and vice-versa) at the same final concentration of 7.0 μM. […] All data generated during this effort were uploaded to the SRIMSC’s institutional screening database (Assay Explorer, Symyx). Sample to background (S/B) ratios, as well as Z and Z′ values were calculated on a per-plate basis as described before. Curve fitting and resulting IC50 determinations were performed as previously reported.

[2] = molecular target: T2, ADAM17 (Homo sapiens, UniProt P78536); assay: ADAM17 glycosylated substrate uHTS/HTS assay; assay type: biochemical; settings: original uHTS dose response, 10-point 1:3 dilutions starting at 70 µM
T2 construct: purchased R&D Systems 930-ADB
Experimental: Both assays followed the same general protocol. […] After 30 min incubation at RT, the reactions were started by addition of 2.5 µL of 2x solutions of glycosylated substrate (20 µM). Reactions were incubated at RT for 2 h, after which the fluorescence was measured using Perkin Elmer Viewlux multimode microplate imager (λexcitation = 360 nm, λemission = 460 nm). Final concentration of test compounds in assays was 7.0 µM.
as §1

[3] = molecular target: T1, ADAM10; assay: ADAM10 kinetic assays, determination of inhibition type and mechanism; assay type: biochemical
Experimental: Since true affinity of time-dependent inhibitors cannot be determined by steady state approaches, in order to determine the true inhibition modality and true affinity of CID 3117694 we performed kinetic assays with the range of glycosylated substrate (0.5–5 [S]/KM) and inhibitor (1.56–50 µM) concentrations in quadruplicate. Reactions were allowed to run for 6 h. Progress curve data were fitted using a non-linear regression model for time-dependent inhibition (Equation 1) using MatLab software.
First, we performed the ADAM10 reaction with glycosylated substrate in the presence of […] CID 3117694 in kinetic format without pre-incubation. Obtained k obs values were plotted versus [I] to determine whether the inhibitor binding conforms to a 1- or 2-step mechanism (Fig. 4A). […] Future studies will address the exact location of this exosite.
In order to determine true inhibition modality and affinity of CID 3117694, kinetic assays were performed with the range of substrate (0.5–5 [S]/KM) and inhibitor concentrations (1.56–50 µM) in quadruplicate. Reactions were allowed to run for 6 h. Progress curve data were fitted using a non-linear regression model for time-dependent inhibition (Equation 1) using MatLab software. [P]=vst+vi−vs/kobs⁎[1−exp(−kobst)]
Obtained k obs values were plotted versus [I] to determine whether the inhibitor binding conforms to a 1- or 2-step mechanism.
To obtain true potency, Equation 3 was solved for K i and K i ′. Resulting ratio of Ki′/Ki termed α (alpha) was used to determine mechanism of inhibition. In order to confirm the true binding modality, k obs was plotted versus [S]/KM. app^Ki=[S]+KM/KM/Ki+[S]/Ki′

[4] = tested on: CCL2-induced migration of peripheral blood mononuclear cells (PBMC); assay: PBMC migration assay; assay type: cell-based; settings: statistical significance not reached
Experimental: (§2) For PBMC or primary human neutrophil chemotaxis assays, transwells with 8 or 5 µm pores were filled with 100 µL of cell suspension (1 × 10^6 cells in 100 µL DMEM + 0.2% BSA). Lower wells were filled with stimulus solution (3 nM CCL2 or 10 µg/mL CXCL8 (IL8) in assay buffer (RPMI + 0.2% BSA). After incubation of PBMCs for 2 h or neutrophils for 45 min, migrated cells were quantified in the lower well. For inhibitor studies, cells were pre-incubated in migration medium for 30 min and subsequently subjected to the migration experiment. Migrated neutrophils or PBMCs were quantified by measurement of endogenous glucuronidase activity as described.

[5] = tested on: IL-8-induced migration of primary human neutrophils; assay: Neutrophil migration assay; assay type: cell-based
Experimental: as §2

T2 sequence (P78536 215-824): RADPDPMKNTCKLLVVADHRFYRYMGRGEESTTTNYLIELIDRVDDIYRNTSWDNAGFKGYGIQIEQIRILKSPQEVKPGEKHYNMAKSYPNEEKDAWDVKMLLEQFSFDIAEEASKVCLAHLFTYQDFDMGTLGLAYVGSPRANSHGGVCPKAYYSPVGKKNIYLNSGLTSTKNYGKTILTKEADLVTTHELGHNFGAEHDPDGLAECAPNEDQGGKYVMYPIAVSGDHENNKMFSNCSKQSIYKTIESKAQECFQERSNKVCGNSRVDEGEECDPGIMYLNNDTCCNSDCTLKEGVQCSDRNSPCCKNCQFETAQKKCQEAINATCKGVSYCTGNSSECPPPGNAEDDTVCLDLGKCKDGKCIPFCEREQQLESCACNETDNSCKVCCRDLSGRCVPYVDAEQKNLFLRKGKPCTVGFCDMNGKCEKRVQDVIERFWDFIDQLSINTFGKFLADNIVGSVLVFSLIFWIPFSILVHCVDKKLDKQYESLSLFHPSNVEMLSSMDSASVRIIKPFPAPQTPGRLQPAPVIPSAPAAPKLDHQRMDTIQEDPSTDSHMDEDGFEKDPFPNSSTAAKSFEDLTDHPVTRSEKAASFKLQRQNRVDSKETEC

difference in potency, 0.5 hour pre-incubation versus no incubation [1]: approximately 40 fold
IC50 ([1]; 1 h pre-incubation): 700 ± 500 nM
IC50 ([1]; 4 h pre-incubation): 400 ± 300 nM
difference in in vitro potency for ADAM10, GI 254023X versus CID 3117694 ([1]; IC50 5.3 nM versus 1.1 µM): ~200 fold
IC50 ([1]; no pre-incubation with ADAM10): 40000 ± 5000 nM
inhibition profile ([1]; no pre-incubation with ADAM10): partial inhibition profile
IC50 ([1]; original uHTS dose response, 10-point 1:3 dilutions starting at 70 µM): 6500 nM
IC50 ([1]; reordered powder, HTS assay, glycosylated substrate, 0.5 h pre-incubation): 1100 nM
IC50 [2]: > 70000 nM
ratio of Ki′/Ki, α (alpha) [3]: 21.7
Ki ([3]; apparent potency at initial velocity, hyperbolic two-step model, read-out: appKi): 1360 ± 200 nM
Ki ([3]; apparent potency at steady-state velocity, read-out: appKi*): 330 ± 20 nM
Ki ([3]; binding affinity for enzyme-substrate complex, read-out: Ki): 19000 nM
Ki ([3]; binding affinity for free enzyme, read-out: Ki): 883 nM
inhibition modality ([3]; kobs versus [S]/KM and α): competitive inhibitor
Structure (SMILES): COc1cccc(C(=O)NNC(=O)C(=O)Nc2ccc(C)c(Cl)c2)c1 [CID 3117694]
inhibition of PBMC migration [4]: approximately 50%
inhibition of neutrophil migration [5]: inhibition of migration to random migration levels

— publication PMC5431342, “Discovery of an enzyme and substrate selective inhibitor of ADAM10 using an exosite-binding glycosylated substrate” (Scientific Reports, 2016)
